Among the data in ChEMBL document CHEMBL1130790, “Peptidyl human heart chymase inhibitors. 2. Discovery of highly selective difluoromethylene ketone derivatives with Glu at P3 site” (Bioorg Med Chem Lett, 1998) are Ki and Ratio values, retold here.

The target of one test is T1, Chymase (Homo sapiens, UniProt P23946).
T1 sequence (P23946 whole entry): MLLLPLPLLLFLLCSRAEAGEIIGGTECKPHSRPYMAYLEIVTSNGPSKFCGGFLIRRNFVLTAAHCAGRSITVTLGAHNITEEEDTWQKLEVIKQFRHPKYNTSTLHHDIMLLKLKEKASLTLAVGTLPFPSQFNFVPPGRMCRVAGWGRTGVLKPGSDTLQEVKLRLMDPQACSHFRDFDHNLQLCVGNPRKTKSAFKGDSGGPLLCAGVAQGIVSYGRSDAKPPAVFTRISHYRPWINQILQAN
The experiment in a line: Compound was evaluated for inhibitory activity against human heart chymase (HHC).

The nature of test [1]: Selectivity ratio of Bovine chymotrypsin (BCT-Ki) to human heart chymase (HHC-Ki).

The Ki is a measure of affinity in units of concentration, obtained from inhibition or displacement. A low value points to tighter binding.

The structures appear in SMILES notation. Where a SMILES comes first, the peptide text is derived from it. The star is where a group is joined. Cbz = O=C(OCc1ccccc1)* A value given as a limit tells only on which side of the number the result lay.

`CC[C@H](C)[C@H](NC(=O)OCc1ccccc1)C(=O)N[C@@H](CCC(=O)O)C(=O)N1CCC[C@H]1C(=O)N[C@@H](Cc1ccccc1)C(=O)OC` (Cbz-IEPF-OMe) gave a Ki on Chymase of 3 nM. Same read-out and setting: to `CC(C)(C)OC(=O)NC(CCC(=O)O)C(=O)N1CCC[C@H]1C(=O)NC(Cc1ccccc1)C(=O)C(F)(F)C(=O)Nc1cc(C(=O)O)c2ccccc2c1` (stereo partly specified) belongs 14.2 nM. With `CC(C)(C)OC(=O)NC(CCC(=O)O)C(=O)N1CCC[C@H]1C(=O)NC(Cc1ccccc1)C(=O)C(F)(F)C(=O)Nc1cccc(S(N)(=O)=O)c1` (stereo partly specified), the Ki on Chymase came to 27.5 nM. For the same molecule, in test [1], the Ratio was found to be 38. For `CCCCNS(=O)(=O)c1cccc(NC(=O)C(F)(F)C(=O)C(Cc2ccccc2)NC(=O)[C@@H]2CCCN2C(=O)C(CCC(=O)O)NC(=O)OC(C)(C)C)c1` (stereo partly specified), affinity at Chymase was put at a Ki of 22.8 nM. `CC(C)(C)OC(=O)NC(CCC(=O)O)C(=O)N1CCC[C@H]1C(=O)NC(Cc1ccccc1)C(=O)C(F)(F)C(=O)Nc1cc(C(=O)O)cs1` (stereo partly specified): the affinity on Chymase, expressed as Ki, was 6 nM. In addition, the Ratio in test [1] was more than 16700.

On to `CC(C)C(NC(=O)OC(C)(C)C)C(=O)N1CCC[C@H]1C(=O)NC(Cc1ccccc1)C(=O)C(F)(F)C(=O)Nc1cccc(C(=O)O)c1` (stereo partly specified), for which the Ki at Chymase was determined as 5.6 nM. In other words, the single-digit nanomolar range.

`CC(C)(C)OC(=O)NC(CCC(=O)O)C(=O)N1CCC[C@H]1C(=O)NC(Cc1ccccc1)C(=O)C(F)(F)C(=O)Nc1cccc(CC(=O)O)c1` (stereo partly specified) displayed a Ki on Chymase of 6.7 nM. In addition, the Ratio in test [1] worked out at 590. `CC(C)(C)OC(=O)NC(CCC(=O)O)C(=O)N1CCC[C@H]1C(=O)NC(Cc1ccccc1)C(=O)C(F)(F)C(=O)Nc1cccc(C(=O)O)c1` (stereo partly specified): on Chymase, the Ki was found to be 3.9 nM. In test [1], the Ratio worked out at 332. On Chymase, `CC(C)(C)OC(=O)NC(CC(=O)O)C(=O)N1CCC[C@H]1C(=O)NC(Cc1ccccc1)C(=O)C(F)(F)C(=O)Nc1cccc(C(=O)O)c1` (stereo partly specified) displayed an inhibition constant (Ki) of 36.6 nM. The Ratio in test [1] was 2730. On the same counts, the results for `CC(C)(C)OC(=O)NC(CCC(=O)O)C(=O)N1CCC[C@H]1C(=O)NC(Cc1ccccc1)C(=O)C(F)(F)C(=O)Nc1cccc(C(N)=O)c1` (stereo partly specified) are 21.1 nM and 58.
